These compounds were tested against T1, horseradish peroxidase (HRP-type VIA) (Armoracia rusticana, UniProt P00433) (assay: Dependence of the enhanced luminol-peroxide-peroxidase chemiluminescent reaction on secondary enhancer concentration). Settings: pH 9.00 Tris buffer; initial light output, FIG. 4.
T1 construct: purchased Sigma-Aldrich
T1 sequence (P00433 31-338 limits assumed): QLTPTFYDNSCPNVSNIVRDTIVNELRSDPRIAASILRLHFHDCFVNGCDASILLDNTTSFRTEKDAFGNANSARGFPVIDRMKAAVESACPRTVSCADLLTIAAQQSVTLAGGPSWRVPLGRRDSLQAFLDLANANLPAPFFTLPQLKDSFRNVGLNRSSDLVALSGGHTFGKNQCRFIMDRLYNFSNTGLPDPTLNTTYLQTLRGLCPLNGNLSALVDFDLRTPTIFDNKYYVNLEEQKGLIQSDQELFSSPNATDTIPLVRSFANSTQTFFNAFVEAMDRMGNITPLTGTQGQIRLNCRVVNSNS
Format: biochemical
Method: All measurements reported in Examples were carried out with a Varian Eclipse spectrofluorimeter and the following settings: bio/chemiluminescence mode; emission wavelength: 425 nm; emission slit: 20 nm; Photomultiplier Detection Voltage: medium.
A series of chemiluminescent substrates in 0.15 M, pH 9.00+−0.05 Tris buffer, is prepared, with the following compositions:
[luminol sodium salt]=5 mM
[sodium 3-(phenothiazin-10-yl)propane-1-sulfonate]=3 mM secondary enhancer=MORP, imidazole, 1-methylimidazole, 1,2,3-triazole, 1,2,4-triazole at the following concentrations:
A series of disposable polymethylmethacrylate cuvettes is prepared, each containing 2 mL of substrate solution. To each cuvette are added 10 μL of a 2 μg/mL horseradish peroxidase solution (HRP-type VIA) solution and simultaneously a 30 seconds countdown is started. The cuvette is closed with a square piece of parafilm and vortexed for 3 seconds. The cuvette is then inserted into the spectrofluorimeter. At the end of the 30 seconds countdown measurement of the luminescent signal is initiated and recorded for a 900 sec period. In all cases the signal reaches a plateau level within 30 seconds after the addition of the peroxidase, and then begins to slowly decrease. Initial, plateau levels are plotted vs. secondary enhancer concentration, FIG. 4. As it can be seen, the effect of MORP on signal intensity is quite strong even at very low concentrations. Signal output reaches a sharp maximum at about 1.5 mM of MORP and then falls abruptly. In contrast, N-azoles exert a much more gradual effect on signal intensity, reaching a plateau at much higher concentration levels. Thus, they afford a considerable degree of regulation of the chemiluminescent light output, which cannot be obtained with dialkylaminopyridine secondary enhancers such as MORP.

Structure (SMILES)	behaviour of enhancement effect with increasing secondary enhancer concentration
c1cc(N2CCOCC2)ccn1 [MORP, 4-morpholinopyridine, reference compound]	sharply decreases its enhancement effect with a further increase in concentration
c1c[nH]nn1 [1,2,3-triazole]	tend to reach a plateau
c1c[nH]cn1 [imidazole]	begin to slowly decrease their action at very high concentration
c1nc[nH]n1 [1,2,4-triazole]	tend to reach a plateau
Cn1ccnc1 [1-methylimidazole]	tend to reach a plateau
